Experiment [1] can be described thus: Luminescence Cell-Based Dose Confirmation HTS to Identify Activators of 5'UTR Stem-Loop Driven Alpha-Synuclein mRNA Translation in H4 Neuroglioblastoma Cells. [Related pubchem assays: 1829 (Project Summary), 1814 (Primary HTS)]. In kind it is functional.
Experiment [2] in a line: Luminescence Cell-Based Dose Response HTS to Identify Activators of Luciferase Translation or Activity in H4 […] Cells. [Related pubchem assays: 1829 (Project Summary), 1814 (Primary HTS)]. It counts as functional.
A further experiment relates to H4. The experiment is described as follows: Luminescence Cell-Based Dose Response HTS to Identify Activators of 5'UTR Stem-Loop Driven Prion Protein mRNA Translation in H4 Neuroglioblastoma Cells. [Related pubchem assays: 1829 (Project Summary), 1814 (Primary HTS)]. The settings on record: Homo sapiens. In kind it is functional.
The nature of experiment [3]: Trypanosoma cruzi growth suppression in host cells – NIH3T3 host cells, beta-gal luminescence, confirmation (AID 2044).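 Also: intracellular parasites grown in NIH/3T3 mouse fibroblasts as host cells; luminescent beta-galactosidase reporter signal from transgenic T. cruzi replicating inside host cells; inhibitors lower the luminescence signal.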 In kind it is functional, cell-based.
Experiment [4] can be described thus: NIH3T3 cell viability loss – ATP luminescence, mouse fibroblasts, counter-screen, dose response (AID 2010).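 Also: cells exposed to compound for about 90 hours before reading.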 In kind it is functional, cell-based. For orientation: A counterscreen serves to expose hits that act by an unwanted route or on another target.
The subject of the next experiment is INS1. The experiment is described as follows: INS-1E survival protection against cytokine death – cell-based, luminescence, retest, dose response (AID 449756).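 Also: cell death triggered by IL-1 beta plus TNF-alpha plus IFN-gamma mixture; protective hits raise ATP signal compared with cytokine alone wells.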 In kind it is functional. The settings on record: Rattus norvegicus.
In experiment [5] the target is T1, Replicative DNA helicase DnaB (Mycobacterium tuberculosis, UniProt P9WMR3).
T1 sequence (P9WMR3 whole entry): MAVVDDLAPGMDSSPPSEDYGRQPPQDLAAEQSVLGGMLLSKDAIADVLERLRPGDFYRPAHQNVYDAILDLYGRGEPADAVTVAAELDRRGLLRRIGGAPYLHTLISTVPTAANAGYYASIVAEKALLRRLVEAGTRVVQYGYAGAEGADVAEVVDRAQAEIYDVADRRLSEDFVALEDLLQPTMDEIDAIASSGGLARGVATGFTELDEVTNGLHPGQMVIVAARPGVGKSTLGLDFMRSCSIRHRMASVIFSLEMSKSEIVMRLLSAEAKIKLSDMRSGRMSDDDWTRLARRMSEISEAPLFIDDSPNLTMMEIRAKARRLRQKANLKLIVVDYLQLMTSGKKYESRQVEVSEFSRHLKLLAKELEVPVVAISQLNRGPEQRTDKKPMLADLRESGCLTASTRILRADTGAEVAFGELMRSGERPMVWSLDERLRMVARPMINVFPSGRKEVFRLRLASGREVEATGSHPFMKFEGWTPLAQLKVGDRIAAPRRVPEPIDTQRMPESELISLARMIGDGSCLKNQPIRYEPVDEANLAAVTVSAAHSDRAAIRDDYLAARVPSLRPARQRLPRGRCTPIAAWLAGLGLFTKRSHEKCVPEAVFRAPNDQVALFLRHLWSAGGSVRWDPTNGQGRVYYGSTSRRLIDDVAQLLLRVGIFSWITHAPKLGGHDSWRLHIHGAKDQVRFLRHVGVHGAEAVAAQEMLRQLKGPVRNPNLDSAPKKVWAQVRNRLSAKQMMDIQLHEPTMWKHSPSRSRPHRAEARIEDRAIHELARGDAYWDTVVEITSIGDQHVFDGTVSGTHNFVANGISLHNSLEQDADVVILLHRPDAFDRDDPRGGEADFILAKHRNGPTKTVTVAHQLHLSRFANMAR
The experiment is described as follows: DnaB intein splicing inhibitors, dose response, biochemical, cell-free fluorescence (AID 449749). In kind it is functional.

The target of another experiment is T2, Protein RecA (Mycobacterium tuberculosis, UniProt P9WHJ3).
T2 sequence (P9WHJ3 whole entry): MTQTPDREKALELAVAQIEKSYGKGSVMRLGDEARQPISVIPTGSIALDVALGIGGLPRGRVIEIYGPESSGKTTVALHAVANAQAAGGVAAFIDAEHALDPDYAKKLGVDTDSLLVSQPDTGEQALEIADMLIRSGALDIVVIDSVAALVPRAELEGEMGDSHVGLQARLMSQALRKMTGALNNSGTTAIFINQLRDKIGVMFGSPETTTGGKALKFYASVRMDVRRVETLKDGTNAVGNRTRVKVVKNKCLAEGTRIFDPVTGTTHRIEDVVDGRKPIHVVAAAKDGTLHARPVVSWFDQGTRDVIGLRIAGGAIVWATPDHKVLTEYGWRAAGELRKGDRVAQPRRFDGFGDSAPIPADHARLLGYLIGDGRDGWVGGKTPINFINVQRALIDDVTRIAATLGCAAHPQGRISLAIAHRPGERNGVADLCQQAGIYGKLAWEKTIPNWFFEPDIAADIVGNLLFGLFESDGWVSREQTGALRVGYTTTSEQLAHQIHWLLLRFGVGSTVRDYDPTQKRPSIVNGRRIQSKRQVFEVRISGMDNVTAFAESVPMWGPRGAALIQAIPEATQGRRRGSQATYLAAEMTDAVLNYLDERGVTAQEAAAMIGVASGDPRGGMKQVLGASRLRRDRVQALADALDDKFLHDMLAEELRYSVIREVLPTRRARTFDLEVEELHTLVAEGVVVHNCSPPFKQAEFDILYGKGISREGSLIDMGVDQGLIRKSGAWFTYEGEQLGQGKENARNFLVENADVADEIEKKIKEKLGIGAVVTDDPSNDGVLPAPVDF
The experiment is described as follows: Fluorescence Cell-Free Homogeneous Dose Retest to Identify Inhibitors of RecA-Intein Splicing Activity. [Related pubchem assays (depositor defined):AID2097, AID2223, AID489010, AID492950]. In kind it is functional.

In the next experiment the target is Paired box protein Pax-8 (Homo sapiens, UniProt Q06710). The experiment is described as follows: PAX8 transcriptional activity inhibition in RMG-I – RMG-I cells, luciferase, cherry-pick, dose response (AID 687027).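 Also: luciferase reporter driven by Pax8 target thyroperoxidase promoter measured by SteadyGlo luminescence.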 It counts as functional, cell-based.
Chain of Paired box protein Pax-8 (Q06710 whole entry): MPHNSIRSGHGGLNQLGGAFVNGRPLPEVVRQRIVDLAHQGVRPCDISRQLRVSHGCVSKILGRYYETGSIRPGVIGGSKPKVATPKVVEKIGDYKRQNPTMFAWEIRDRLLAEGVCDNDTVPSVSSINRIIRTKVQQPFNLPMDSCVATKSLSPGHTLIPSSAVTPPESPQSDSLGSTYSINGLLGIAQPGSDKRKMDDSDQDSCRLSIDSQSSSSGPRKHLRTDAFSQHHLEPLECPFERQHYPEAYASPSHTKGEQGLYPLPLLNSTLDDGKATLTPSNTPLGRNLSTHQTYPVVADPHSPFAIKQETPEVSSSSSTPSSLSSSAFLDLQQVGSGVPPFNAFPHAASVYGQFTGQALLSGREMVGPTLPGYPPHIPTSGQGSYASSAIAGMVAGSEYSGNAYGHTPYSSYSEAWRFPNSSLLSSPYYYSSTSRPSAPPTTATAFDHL
The target in a further experiment is T3, Cytochrome P450 1A2 (Homo sapiens, UniProt P05177).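 Also: PubChem cytochrome P450 panel assay, CYP1A2 panel member.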
T3 sequence (P05177 whole entry): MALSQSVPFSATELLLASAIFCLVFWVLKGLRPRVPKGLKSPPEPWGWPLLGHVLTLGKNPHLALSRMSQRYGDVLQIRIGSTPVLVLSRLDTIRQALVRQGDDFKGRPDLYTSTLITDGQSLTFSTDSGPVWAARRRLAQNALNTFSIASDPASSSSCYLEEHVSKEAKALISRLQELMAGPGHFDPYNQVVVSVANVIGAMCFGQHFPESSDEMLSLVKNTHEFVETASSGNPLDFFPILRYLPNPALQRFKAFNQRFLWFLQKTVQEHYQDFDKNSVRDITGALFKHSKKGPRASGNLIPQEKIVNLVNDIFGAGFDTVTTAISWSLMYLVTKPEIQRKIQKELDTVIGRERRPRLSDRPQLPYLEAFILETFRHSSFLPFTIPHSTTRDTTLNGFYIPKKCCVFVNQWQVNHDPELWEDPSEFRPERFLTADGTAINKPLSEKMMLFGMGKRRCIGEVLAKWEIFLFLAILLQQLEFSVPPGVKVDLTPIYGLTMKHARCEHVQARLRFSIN

The next experiment has as its target Cytochrome P450 3A4 (Homo sapiens, UniProt P08684).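 Also: CYP3A4 tested as one member of a cytochrome P450 panel screen.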
The next experiment deals with Cytochrome P450 2C19 (Homo sapiens, UniProt P33261). The experiment is described as follows: Cytochrome panel assay with activity outcomes. Panel member name: p450-cyp2c19 Compounds with AC50 equal or less than 10 uM are considered active. In kind it is functional. As to conditions: read-out: AC50.
Chain of Cytochrome P450 2C19 (P33261 whole entry): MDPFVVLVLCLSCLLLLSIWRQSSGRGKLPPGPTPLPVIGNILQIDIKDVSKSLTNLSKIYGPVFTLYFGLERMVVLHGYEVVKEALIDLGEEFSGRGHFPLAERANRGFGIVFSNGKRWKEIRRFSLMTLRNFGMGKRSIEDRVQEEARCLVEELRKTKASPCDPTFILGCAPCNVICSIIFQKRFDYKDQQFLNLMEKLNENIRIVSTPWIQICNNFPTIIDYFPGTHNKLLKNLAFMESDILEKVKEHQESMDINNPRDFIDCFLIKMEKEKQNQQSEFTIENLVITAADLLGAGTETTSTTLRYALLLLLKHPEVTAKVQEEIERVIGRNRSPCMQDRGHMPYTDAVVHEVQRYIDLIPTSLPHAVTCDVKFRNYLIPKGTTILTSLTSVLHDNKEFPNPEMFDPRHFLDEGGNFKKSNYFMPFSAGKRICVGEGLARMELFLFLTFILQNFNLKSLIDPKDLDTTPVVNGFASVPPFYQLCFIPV
A further experiment concerns the target Cytochrome P450 2C9 (Homo sapiens, UniProt P11712).

This passage reports EC50 and AC50 results from ChEMBL document CHEMBL1201862, “PubChem BioAssay data set” (2004).

The source made the active and inactive calls.

Chain of Cytochrome P450 3A4 (P08684 whole entry): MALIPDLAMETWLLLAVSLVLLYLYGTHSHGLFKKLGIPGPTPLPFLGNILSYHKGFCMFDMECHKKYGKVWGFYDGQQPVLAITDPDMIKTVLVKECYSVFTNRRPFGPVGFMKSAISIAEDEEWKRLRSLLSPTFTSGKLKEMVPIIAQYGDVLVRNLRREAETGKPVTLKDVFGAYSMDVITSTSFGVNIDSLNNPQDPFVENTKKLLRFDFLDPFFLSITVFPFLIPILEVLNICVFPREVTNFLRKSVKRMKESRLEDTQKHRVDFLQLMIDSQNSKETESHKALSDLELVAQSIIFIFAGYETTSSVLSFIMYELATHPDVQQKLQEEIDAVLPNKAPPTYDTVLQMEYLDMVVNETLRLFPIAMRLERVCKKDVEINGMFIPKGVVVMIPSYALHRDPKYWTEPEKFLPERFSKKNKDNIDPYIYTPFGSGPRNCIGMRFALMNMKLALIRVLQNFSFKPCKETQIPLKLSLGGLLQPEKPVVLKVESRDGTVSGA
Chain of Cytochrome P450 2C9 (P11712 whole entry): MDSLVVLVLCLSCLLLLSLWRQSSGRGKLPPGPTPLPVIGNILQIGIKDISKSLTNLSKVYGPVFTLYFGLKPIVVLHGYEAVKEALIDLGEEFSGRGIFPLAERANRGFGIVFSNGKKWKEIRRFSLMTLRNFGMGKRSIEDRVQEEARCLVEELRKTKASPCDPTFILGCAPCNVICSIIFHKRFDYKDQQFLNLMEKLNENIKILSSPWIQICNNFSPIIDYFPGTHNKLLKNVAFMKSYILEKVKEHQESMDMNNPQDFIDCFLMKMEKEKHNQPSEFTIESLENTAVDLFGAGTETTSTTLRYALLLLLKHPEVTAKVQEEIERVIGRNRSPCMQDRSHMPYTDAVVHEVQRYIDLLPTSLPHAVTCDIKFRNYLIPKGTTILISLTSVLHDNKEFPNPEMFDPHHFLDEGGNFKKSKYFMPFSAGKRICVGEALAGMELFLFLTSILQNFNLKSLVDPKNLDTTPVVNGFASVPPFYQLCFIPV

As a reminder, the EC50 is the concentration giving half of the maximal effect. For the compound `CCc1ccc2nc(O)c(CN(Cc3ccccc3OC)C(=O)Nc3ccccc3OC)cc2c1`, the EC50 was 111 µM (active) in experiment [1]; > 120 µM (not active) in [2]; 111 µM (active) with H4; 3 µM (active) in experiment [3]; > 60 µM (not active) in experiment [4].

With `Cc1cc(C)c2c(N)c(C(=O)Nc3cccc(C)c3C)sc2n1`, the concentration giving a half-maximal response (EC50) was > 120 µM (not active) in experiment [1], 3.92 µM (active) in experiment [2] and > 120 µM (not active) in the experiment on H4.

As usually defined, the AC50 is the midpoint of the concentration-response curve, whichever way the signal moves. With `O=[N+]([O-])c1cccc(/C=N/n2cnnc2)c1`, the AC50 in the experiment with INS1 is > 260 µM (inactive).

On to `O=C(c1ccc(C[S+]([O-])Cc2ccccc2Cl)o1)N1CCN(C2CCCCC2)CC1` (stereo not given), for which the EC50 (in [1]; in experiment [2]; in the experiment with H4) was > 120 µM (not active) in each case.

Consider `Cc1ccc(C)c(NC(=O)c2cc3ccccn3n2)c1`, for which the half-maximal effective concentration (EC50) in experiment [1] is 0.765 µM (active); in [2], 0.163 µM (active); with H4, 41.1 µM (active).

On to `O=C(Nc1nnc(-c2ccccc2F)s1)C1CCCO1` (stereo not given), for which the EC50 is 0.223 µM (active) in experiment [1] and 0.89 µM (active) in experiment [2].

Take `O=C(c1c[nH]c(C(=O)C(Cl)(Cl)Cl)c1)c1ccc(F)cc1F`: the AC50 in [5] is 21.2 µM (active). Moreover, the EC50 at Protein RecA is 7.8 µM (active).

On to `CC(=O)n1c2c(c3ccccc31)OC(N)=C(C#N)C2c1ccc(C(C)C)cc1` (stereo not given), for which the EC50 in experiment [1] is 11.7 µM (active); in experiment [2], 10 µM (active); in the experiment with H4 it was 16.2 µM (active).

On to `CCOC(=O)/C(C#N)=C1/C=CN(c2ccc(C)cc2)C=N1`, for which the EC50 in experiment [1] is > 120 µM (not active); in experiment [2], 14.9 µM (active); with H4, 14.8 µM (active).

In the case of `COC(=O)COc1c(Cl)cc(C(c2c(C)n[nH]c2O)c2c(C)n[nH]c2O)cc1OC`, the concentration at half-maximal activity (AC50) in [5] was 0.47 µM (active). The half-maximal effective concentration (EC50) on Protein RecA was 0.158 µM (active).

With `COc1cc2c(cc1OC)CN(c1ccc3ccccc3n1)CC2`, the results for the EC50 (in experiment [1]; in experiment [2]; in the experiment on H4) were 17 µM (active), 11.9 µM (active) and 15.9 µM (active), respectively.

On to `COc1cc(C2C(C#N)=C(N)Oc3[nH]nc(-c4cccnc4)c32)ccc1OCC(N)=O` (stereo not given), for which the concentration at half-maximal activity (AC50) in experiment [5] was 48.5 µM (active). Besides, on Protein RecA, the EC50 was 3.16 µM (active).

As for `Cc1ccc(S(=O)(=O)N(C)C[C@H]2OCCCC[C@@H](C)Oc3ccc(NS(=O)(=O)c4ccc(F)cc4)cc3C(=O)N([C@@H](C)CO)C[C@H]2C)cc1`, on Paired box protein Pax-8, the AC50 is 8.12 µM (active).

For `COc1ccnc(N=CNOCc2ccc(C)cc2)c1C#N`, the EC50 was 14.7 µM (active) in experiment [1], 12.5 µM (active) in experiment [2] and 55.5 µM (active) in the experiment with H4.

Take `NC[C@](O)(CS(=O)(=O)O)c1ccc(Cl)cc1`: the AC50 at Cytochrome P450 1A2 was 31.6 µM (inconclusive); on Cytochrome P450 3A4 it was 1 µM (inconclusive).

As for `Cc1cccc(-n2ccnc2SCC(=O)Nc2nccs2)c1`, the EC50 in experiment [1] is 6.34 µM (active); in [2], 23.4 µM (active); in the experiment with H4, > 120 µM (not active).

Turning to `CCc1ccc(N2C(=O)/C(=C/c3cccs3)N(CC(=O)OC)C2=S)cc1`, the half-maximal activity concentration (AC50) is 3.98 µM (inconclusive) at Cytochrome P450 2C19, 15.8 µM (inconclusive) at Cytochrome P450 1A2, 12.6 µM (inconclusive) on Cytochrome P450 3A4 and 12.6 µM (inconclusive) at Cytochrome P450 2C9.

Regarding `CCCc1cc2c(=O)c(-c3ccc4c(c3)OCCO4)coc2cc1OS(C)(=O)=O`, the EC50 in experiment [1] was 0.103 µM (active); in experiment [2], < 0.195 µM (inconclusive); in the experiment on H4, > 120 µM (not active).

With `CCCCCn1c(=O)c(C(=O)NCc2ccccc2Cl)c(O)c2ccccc21`, the AC50 in the experiment on INS1 was 8.04 µM (active).

In the case of `O=c1c2cc(-c3ccccc3)sc2ncn1-n1cccc1`, the 50% effective concentration (EC50) was 0.473 µM (active) in experiment [1], 0.674 µM (active) in experiment [2] and 15 µM (active) in the experiment on H4.

On to `C[C@H](O)C#Cc1cnc2c(c1)C(=O)N([C@H](C)CO)C[C@H](C)[C@H](CN(C)Cc1ccc(-c3ccccc3)cc1)O2`, for which the AC50 on Paired box protein Pax-8 is 5.05 µM (active).

As to `Cc1[nH]nc(O)c1C(c1ccc(Cl)cc1)c1c(O)n[nH]c1C`, the half-maximal activity concentration (AC50) in experiment [5] was 1.27 µM (active). Also, the EC50 at Protein RecA was 0.461 µM (active).
